Test results: patent US6281169A, “Aqueous suspensions of low solubility and low stability water additives” (BioLab Services, Inc., priority 1999, dated 2001)
Read-outs that look alike come from different tables or passages of the source.

Tests used:
[1] = test system: Strep. faecalis (ATCC #6569); assay: Biocidal efficacy, AOAC Official Method 965.13, gram-positive bacteria; format: cell-based
Protocol: (§1) The biocidal efficacy of dissolved BCDMH was compared to sodium hypochlorite using AOAC Official Method 965.13 (1995 Edition)--Disinfectant (Water) for Swimming Pools against the gram-negative bacteria E. coli (ATCC #11229) and the gram-positive bacteria Strep. faecalis (ATCC #6569). The desired nominal biocide dosage (0, 0.1, 0.3, 0.6 or 0.9 mg/l total halogen expressed as chlorine) was established by dilution from freshly prepared (filtered) standardized stock solutions of either BCDMH Powder or NaOCl into phosphate buffered water (approximate pH of 7.5 as described in the method). An inoculum was standardized to yield 2×10^8 organisms per ml. One ml of the standardized inoculum was mixed into 199 ml of phosphate buffered water containing the desired dosage of biocide. One-ml aliquots were removed at specific times (30, 60, 120 and 180 seconds after inoculum addition) and added, with mixing, into separate tubes containing 9 ml of thiosulfate solution to neutralize the oxidizing halogen. Five 1 ml aliquots of from each neutralization tube were then added and mixed into five separate tubes each containing 9 ml of subculture broth. After 48 hours of incubation, these were examined to determine growth or no growth in the subculture medium. […]

[2] = cited from earlier work
[3] = cited from earlier work; for hydrolytic stability (in words): background
[4] = test system: bacteria; assay: Biocidal efficacy comparison, both bacteria (in words); format: cell-based, E. coli; Strep. faecalis; conditions: compared with NaOCl, predissolved BCDMH or other Examples
Protocol: The biocidal efficacy of dissolved BCDMH was compared to sodium hypochlorite using AOAC Official Method 965.13 (1995 Edition)--Disinfectant (Water) for Swimming Pools against the gram-negative bacteria E. coli (ATCC #11229) and the gram-positive bacteria Strep. faecalis (ATCC #6569). The desired nominal biocide dosage (0, 0.1, 0.3, 0.6 or 0.9 mg/l total halogen expressed as chlorine) was established by dilution from freshly prepared (filtered) standardized stock solutions of either BCDMH Powder or NaOCl into phosphate buffered water (approximate pH of 7.5 as described in the method). An inoculum was standardized to yield 2×10^8 organisms per ml. One ml of the standardized inoculum was mixed into 199 ml of phosphate buffered water containing the desired dosage of biocide. One-ml aliquots were removed at specific times (30, 60, 120 and 180 seconds after inoculum addition) and added, with mixing, into separate tubes containing 9 ml of thiosulfate solution to neutralize the oxidizing halogen. Five 1 ml aliquots of from each neutralization tube were then added and mixed into five separate tubes each containing 9 ml of subculture broth. After 48 hours of incubation, these were examined to determine growth or no growth in the subculture medium.
The efficacy of this preparation was tested as described in Example 1 except that no stock solution of the preparation was made. […]

[5] = test system: E. coli (ATCC #11229); assay: Biocidal efficacy, AOAC Official Method 965.13, gram-negative bacteria; format: cell-based
Protocol: as §1

[6] = background; cited from earlier work
[7] = 0.1 ppm total halogen as Cl2, 30 sec
[8] = 0.1 ppm total halogen as Cl2, 60 sec
[9] = 0.1 ppm total halogen as Cl2, 120 sec
[10] = 0.1 ppm total halogen as Cl2, 180 sec
[11] = 0.3 ppm total halogen as Cl2, 30 sec
[12] = 0.3 ppm total halogen as Cl2, 60 sec
[13] = 0.3 ppm total halogen as Cl2, 120 sec
[14] = 0.3 ppm total halogen as Cl2, 180 sec
[15] = 0.6 ppm total halogen as Cl2, 30 sec
[16] = 0.6 ppm total halogen as Cl2, 60 sec
[17] = 0.6 ppm total halogen as Cl2, 120 sec
[18] = 0.6 ppm total halogen as Cl2, 180 sec
[19] = 0.9 ppm total halogen as Cl2, 30 sec
[20] = 0.9 ppm total halogen as Cl2, 60 sec
[21] = 0.9 ppm total halogen as Cl2, 120 sec
[22] = 0.9 ppm total halogen as Cl2, 180 sec

Row | Compound | Number of Tubes Exhibiting Growth [1, 7] | Number of Tubes Exhibiting Growth [1, 8] | Number of Tubes Exhibiting Growth [1, 9] | Number of Tubes Exhibiting Growth [1, 10] | Number of Tubes Exhibiting Growth [1, 11] | Number of Tubes Exhibiting Growth [1, 12] | Number of Tubes Exhibiting Growth [1, 13] | Number of Tubes Exhibiting Growth [1, 14] | Number of Tubes Exhibiting Growth [1, 15] | Number of Tubes Exhibiting Growth [1, 16] | Number of Tubes Exhibiting Growth [1, 17] | Number of Tubes Exhibiting Growth [1, 18] | hydrolytic stability (in words) [3] | biocidal efficacy (in words) [4] | Number of Tubes Exhibiting Growth [5, 7] | Number of Tubes Exhibiting Growth [5, 8] | Number of Tubes Exhibiting Growth [5, 9] | Number of Tubes Exhibiting Growth [5, 10] | Number of Tubes Exhibiting Growth [5, 11] | Number of Tubes Exhibiting Growth [5, 12] | other results
1 | CC1(C)C(=O)N(Cl)C(=O)N1Br [BCDMH, bromochlorodimethylhydantoin] | 5 Tubes (Out of 5) | 5 Tubes (Out of 5) | 5 Tubes (Out of 5) | 5 Tubes (Out of 5) | 5 Tubes (Out of 5) | 5 Tubes (Out of 5) | 4 Tubes (Out of 5) | 1 Tubes (Out of 5) | 0 Tubes (Out of 5) | 0 Tubes (Out of 5) | 0 Tubes (Out of 5) | 0 Tubes (Out of 5) | not hydrolytically stable | approximately the same | 5 Tubes (Out of 5) | 5 Tubes (Out of 5) | 5 Tubes (Out of 5) | 5 Tubes (Out of 5) | 5 Tubes (Out of 5) | 5 Tubes (Out of 5) | Number of Tubes Exhibiting Growth [1, 19]: 0 Tubes (Out of 5); Number of Tubes Exhibiting Growth [1, 20]: 0 Tubes (Out of 5); Number of Tubes Exhibiting Growth [1, 21]: 0 Tubes (Out of 5); Number of Tubes Exhibiting Growth [1, 22]: 0 Tubes (Out of 5); water solubility ([2]; 20° C.): approximately 1,500 mg/liter; Number of Tubes Exhibiting Growth [5, 13]: 5 Tubes (Out of 5); Number of Tubes Exhibiting Growth [5, 14]: 5 Tubes (Out of 5); Number of Tubes Exhibiting Growth [5, 15]: 0 Tubes (Out of 5); Number of Tubes Exhibiting Growth [5, 16]: 0 Tubes (Out of 5); Number of Tubes Exhibiting Growth [5, 17]: 0 Tubes (Out of 5); Number of Tubes Exhibiting Growth [5, 18]: 0 Tubes (Out of 5); Number of Tubes Exhibiting Growth [5, 19]: 0 Tubes (Out of 5); Number of Tubes Exhibiting Growth [5, 20]: 0 Tubes (Out of 5); Number of Tubes Exhibiting Growth [5, 21]: 0 Tubes (Out of 5); Number of Tubes Exhibiting Growth [5, 22]: 0 Tubes (Out of 5); dissolving behaviour (in words) [6]: dissolves slowly
2 | O=[N+]([O-])C(Br)=Cc1ccco1 [BNEF, 2-(2-bromo-2-nitro)-ethenyl furan] | – | – | – | – | – | – | – | – | – | – | – | – | – | – | – | – | – | – | – | – | solubility in water ([2]; 25° C.): 300 ppm; decomposition half-life ([3]; pH 4, 50° C.): 2.33 h; decomposition half-life ([3]; pH 4, 60° C.): 1.77 h; decomposition half-life ([3]; pH 4, 70° C.): 0.817 h; decomposition half-life ([3]; pH 5, 25° C.): 71 h; decomposition half-life ([3]; pH 6, 25° C.): 37 h; decomposition half-life ([3]; pH 9, 25° C.): 6 h
3 | O=c1[nH]c(=O)[nH]c(=O)[nH]1 [CYA, S-triazine-2,4,6-trione] | – | – | – | – | – | – | – | – | – | – | – | – | – | – | – | – | – | – | – | – | solubility in water ([2]; 20° C.): approximately 2700 ppm; dissolving behaviour (in words) [6]: fairly tough to dissolve
4 | [Na+].[O-]Cl [NaOCl, sodium hypochlorite] | 5 Tubes (Out of 5) | 5 Tubes (Out of 5) | 5 Tubes (Out of 5) | 5 Tubes (Out of 5) | 5 Tubes (Out of 5) | 5 Tubes (Out of 5) | 5 Tubes (Out of 5) | 5 Tubes (Out of 5) | 0 Tubes (Out of 5) | 0 Tubes (Out of 5) | 0 Tubes (Out of 5) | 0 Tubes (Out of 5) | – | approximately the same | 5 Tubes (Out of 5) | 5 Tubes (Out of 5) | 5 Tubes (Out of 5) | 5 Tubes (Out of 5) | 5 Tubes (Out of 5) | 5 Tubes (Out of 5) | Number of Tubes Exhibiting Growth [5, 13]: 3 Tubes (Out of 5); Number of Tubes Exhibiting Growth [5, 14]: 1 Tubes (Out of 5); Number of Tubes Exhibiting Growth [5, 15]: 0 Tubes (Out of 5); Number of Tubes Exhibiting Growth [5, 16]: 0 Tubes (Out of 5); Number of Tubes Exhibiting Growth [5, 17]: 0 Tubes (Out of 5); Number of Tubes Exhibiting Growth [5, 18]: 0 Tubes (Out of 5)
5 | CCNc1nc(Cl)nc(NC(C)(C)C)n1 [terbuthylazine, 2-(tert-butylamino)-4-chloro-6-(ethylamino)-s-triazine] | – | – | – | – | – | – | – | – | – | – | – | – | good hydrolytic stability | – | – | – | – | – | – | – | solubility in water ([2]; 25° C.): 11.5 ppm; degradation half life ([3]; pH 5): 73 days; degradation half life ([3]; pH 9): 194 days
